In PubChem BioAssay (NCI):
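Exposure lasted 48 hours, with cells grown in 96-well plates and compounds tested at five concentrations. TGI marks complete inhibition of growth.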

Assays:
Experiment in all cases: NCI anticancer screen, dose series, 48 h
786-0 renal = test system: 786-0 renal
HOP-62 NSCLC = test system: HOP-62 NSCLC
HOP-92 NSCLC = test system: HOP-92 NSCLC
HS 578T breast = test system: HS 578T breast
K-562 leukemia = test system: K-562 leukemia
MALME-3M melanoma = test system: MALME-3M melanoma
NCI-H23 lung = test system: NCI-H23 lung
NCI-H460 lung = test system: NCI-H460 lung
NCI-H522 lung = test system: NCI-H522 lung
RPMI-8226 leukemia = test system: RPMI-8226 leukemia
SK-OV-3 ovarian = test system: SK-OV-3 ovarian
HCC-2998 colon = test system: HCC-2998 colon

Structure (SMILES)	TGI (786-0 renal)	TGI (HOP-62 NSCLC)	TGI (HOP-92 NSCLC)	TGI (HS 578T breast)	TGI (K-562 leukemia)	TGI (MALME-3M melanoma)	TGI (NCI-H23 lung)	TGI (NCI-H460 lung)	TGI (NCI-H522 lung)	TGI (RPMI-8226 leukemia)	TGI (SK-OV-3 ovarian)	TGI (HCC-2998 colon)
COc1c(O)cc(/C=C/c2cc(O)cc3c2[C@@]2(C(=O)O3)c3c(O)cc(O)cc3OC2c2cccc(O)c2)cc1O (stereo partly drawn)	> 100 µM	> 100 µM	> 100 µM	> 100 µM	91.9 µM	> 100 µM	> 100 µM	31.9 µM	> 100 µM	52.8 µM	74.8 µM	
Cc1ccc(-c2c(C#N)c(-c3ccc(N(C)C)cc3)c(C#N)c(=O)n2NS(=O)(=O)c2ccccc2)cc1	> 100 µM	> 100 µM	> 100 µM	> 100 µM	> 100 µM	> 100 µM		> 100 µM	> 100 µM	33.2 µM	> 100 µM	> 100 µM
COc1ccc(CSCc2cc(OC)c(OC)c(OC)c2)cc1	> 100 µM	> 100 µM	> 86.6 µM	> 100 µM	> 100 µM	> 31.6 µM	> 100 µM	> 100 µM	> 100 µM	> 100 µM	> 100 µM	> 31.6 µM
Fc1ccc(C(OCCN2CCC3CCC(C2)N3CCCc2ccccc2)c2ccc(F)cc2)cc1 (stereo not drawn)	5.57 µM	23.3 µM	18.9 µM	19.7 µM	5.8 µM	5.46 µM	15 µM	7.51 µM	12.1 µM	5.11 µM	24.8 µM	4.05 µM
O=C(Nc1ccccc1)N1CCNC1=S	> 100 µM	> 100 µM	> 100 µM	> 100 µM	> 100 µM	> 100 µM	> 100 µM	> 100 µM	> 100 µM	> 100 µM	> 100 µM	85.8 µM
Cn1c(=O)nc2n(CCO)c(-c3ccccc3)c(-c3ccccc3)nc-2c1=O	> 100 µM	> 100 µM	> 100 µM	> 100 µM	> 100 µM	> 100 µM	> 100 µM	> 100 µM	> 100 µM	> 100 µM	> 100 µM	> 100 µM
CN1CC=C(OP(=O)(NCc2ccccc2)N(CCCl)CCCl)CC1 (stereo not drawn)	> 100 µM	> 100 µM	> 100 µM	> 100 µM	> 100 µM	> 100 µM	> 100 µM	> 100 µM		> 100 µM	> 100 µM	> 100 µM
O=C1/C(=C/c2cccc([N+](=O)[O-])c2)CCCc2ccccc21	26.6 µM	29.3 µM	29.6 µM	25.9 µM	14.6 µM	22.2 µM	31.4 µM	34.1 µM	19.9 µM	49 µM	63.8 µM	22 µM
Cc1ccc2c(c1)C(C1Cc3c(C)cccc3C1=O)OC2=O (stereo not drawn)	> 100 µM	> 100 µM	> 100 µM	> 100 µM	> 100 µM	> 100 µM	> 100 µM	> 100 µM	> 100 µM	> 100 µM	> 100 µM	> 100 µM
N#Cc1c(-c2ccccc2)c(C#N)c(=O)n(NS(=O)(=O)c2ccccc2)c1O	> 100 µM	> 100 µM	> 100 µM	> 100 µM	> 100 µM	> 100 µM		> 100 µM	> 100 µM	> 100 µM	> 100 µM	> 100 µM
O=C(/C=C/c1ccc(O)c(O)c1)NC(CO)C(=O)O (stereo not drawn)	> 100 µM	> 100 µM	> 100 µM	> 100 µM	> 100 µM	> 100 µM	> 100 µM	> 100 µM	> 100 µM	> 100 µM	> 100 µM	> 100 µM
CC(=O)c1c2c(cc3c1CC1(Cc4cc5c(cc4C1)CCC5)C3)CCC2	> 100 µM	> 100 µM	> 100 µM	> 100 µM	> 100 µM	> 100 µM	> 100 µM	> 100 µM	> 100 µM	> 100 µM	> 100 µM	> 100 µM
C/C(C=O)=N\Nc1cc(C)c2ccccc2n1	28.7 µM	29.2 µM	29.6 µM	46.2 µM	46.6 µM		25.9 µM		47.1 µM	39 µM	45 µM	29.3 µM
Cc1sc2ncnc(NCCc3ccccc3)c2c1C	45.7 µM	33.8 µM	15.5 µM	63.6 µM	63.1 µM	52.3 µM	36 µM	23.9 µM	25.1 µM	42.8 µM	73.4 µM	31.1 µM
Oc1ccccc1C=Nc1ccc(Oc2ccc(Cl)cc2)c(Cl)c1	98.7 µM	34.7 µM	41.4 µM	52.5 µM		44.2 µM	45.4 µM	54.5 µM	31.6 µM	81.1 µM	71.2 µM	45.7 µM
O=C(CNC(=O)OCc1ccccc1)NCCCCC(NC(=O)OCc1ccccc1)C(=O)O (stereo not drawn)	> 100 µM	> 100 µM	> 100 µM	> 100 µM	> 100 µM	> 100 µM	> 100 µM	> 100 µM	> 100 µM	> 100 µM	> 100 µM	> 100 µM
Cc1ccc2c(ccc3c[n+]4ccccc4c(C)c32)c1	19.1 µM	11.3 µM	22.8 µM	15.3 µM	> 100 µM	2.98 µM	10.9 µM	> 100 µM	10.7 µM	67.2 µM	44.8 µM	17.9 µM
C[N+](C)(C)CC1Cc2ccccc2C1=O (stereo not drawn)	> 10 µM	> 10 µM	> 10 µM	> 10 µM	5.07 µM	4.53 µM	> 10 µM	> 10 µM	4.56 µM	> 6.86 µM	> 10 µM	> 10 µM
N#C/C(=C\c1ccc(Cl)cc1)c1nc2ccccc2c(=O)[nH]1	> 100 µM	> 100 µM	39.9 µM	60.6 µM	> 100 µM	> 100 µM		> 100 µM	> 100 µM	> 100 µM	> 100 µM	> 100 µM

Structure (SMILES)	TGI (786-0 renal)	TGI (HOP-62 NSCLC)	TGI (HOP-92 NSCLC)	TGI (HS 578T breast)	TGI (K-562 leukemia)	TGI (MALME-3M melanoma)	TGI (NCI-H23 lung)	TGI (NCI-H460 lung)	TGI (NCI-H522 lung)	TGI (RPMI-8226 leukemia)	TGI (SK-OV-3 ovarian)	TGI (HCC-2998 colon)
CCOP(=O)(CS(C)=O)O[C@@H]1C[C@H](C)CC[C@H]1C(C)C (stereo partly drawn)	6.35 µM	21.4 µM	16.9 µM	11.3 µM	> 100 µM	26.8 µM	17.6 µM	17.6 µM	6.19 µM	5.3 µM	19.9 µM	
O=C(Cc1ccccc1)N/N=C(/CCN1CCCC1)CC(c1ccccc1)c1c(O)c2ccccc2oc1=O (stereo not drawn)	> 100 µM		> 100 µM	> 100 µM	> 100 µM	> 100 µM	> 100 µM		> 100 µM	> 100 µM	> 100 µM	> 100 µM
CC1C2CC(C(C3C(=O)C4CC3C(C)(C)C4C)C2=O)C1(C)C (stereo not drawn)	> 100 µM	> 100 µM	> 100 µM	> 100 µM	> 100 µM	> 100 µM	> 100 µM	> 100 µM	> 100 µM		> 100 µM	> 100 µM
CCCCCCCCCC(=O)OCC1(CO)C/C(=C/CC(C(C)C)C(C)C)C(=O)O1 (stereo not drawn)	> 100 µM	> 100 µM	> 100 µM	> 100 µM	97 µM	82.3 µM	> 100 µM	> 100 µM	39.8 µM		> 100 µM	> 100 µM
O=c1cc(-c2ccc(O)c(O)c2)oc2cc(OC3OC(CO)C(O)C(O)C3O)cc(O)c12 (stereo not drawn)	> 100 µM	> 100 µM	> 100 µM	> 100 µM		> 100 µM	> 100 µM	> 100 µM	> 100 µM	> 100 µM	> 100 µM	> 100 µM
CC[C@@]1(O)C(=O)OCc2c1c(Cl)c1n(c2=O)Cc2cc3ccccc3nc2-1	6.68 µM	8.03 µM	> 70.3 µM	> 100 µM	> 100 µM	42.1 µM	6.24 µM	4.25 µM	20.8 µM	> 100 µM	45.5 µM	80.6 µM
CN(C)c1ccc(C(C#N)N2CCCN(C(C#N)c3ccc(N(C)C)cc3)C2c2ccc(N(C)C)cc2)cc1 (stereo not drawn)	> 100 µM	> 100 µM	> 100 µM	> 100 µM	> 100 µM	> 100 µM	> 100 µM		> 100 µM	> 100 µM	> 100 µM	
CC(=O)Nc1c(C)cc(OCC(=O)O)cc1C	> 100 µM	> 100 µM	> 100 µM	> 100 µM	> 100 µM	> 100 µM	> 100 µM	> 100 µM	> 100 µM	> 100 µM	> 100 µM	> 100 µM
C1CSCC2(COC2)CS1			> 100 µM	> 100 µM	> 100 µM		> 100 µM	> 100 µM	> 100 µM		> 100 µM	> 100 µM
N#Cc1cnn2c1n[n+]([O-])c1ccc(Cl)cc12	> 100 µM	38.6 µM	5.21 µM	> 24.7 µM	3.91 µM	19.8 µM	12.2 µM	26.5 µM	3.81 µM	> 100 µM	23.8 µM	3.46 µM
COc1ccc(/C=C/C(=O)NCC(NC(=O)/C=C/c2ccc(OC)c(OC)c2)C(=O)O)cc1OC (stereo not drawn)	> 100 µM	> 100 µM	0.74 µM	> 100 µM	> 100 µM	> 100 µM	> 100 µM	> 100 µM	> 100 µM	> 100 µM	> 100 µM	> 100 µM
CCn1c(=O)c2c(=O)[nH][nH]c2c2ccccc21	> 100 µM	> 100 µM	> 100 µM	> 100 µM	> 100 µM	> 100 µM	> 100 µM	> 100 µM	> 100 µM	> 100 µM		> 100 µM
O=C1C(NCCc2cc(Br)c(O)c(Br)c2)=CC(=O)c2ncccc21	34.4 µM	9.99 µM	47.5 µM	9.2 µM	13.8 µM	2.84 µM	2.98 µM	5.41 µM	12.1 µM	23.2 µM	68.1 µM	26 µM
CC(C#N)Nc1ccc(Oc2ccc(C(C)(C)c3ccc(Oc4ccc(NC(C)C#N)cc4)cc3)cc2)cc1 (stereo not drawn)	> 100 µM		> 100 µM	94 µM	> 100 µM	> 100 µM	> 100 µM	> 100 µM			> 100 µM	> 100 µM
COC(=O)n1c(=O)nc2c3c(ncn21)Oc1c(c(-c2ccccc2)nn1-c1ccccc1)C3c1ccc(Cl)cc1 (stereo not drawn)	2.81 µM	3.09 µM	3.39 µM	2.62 µM	3.37 µM	2.21 µM	3.96 µM	3.09 µM	2.82 µM	4.07 µM	12.1 µM	2.72 µM
COc1ccc2oc(=N)c(C(N)=S)cc2c1	> 100 µM	> 100 µM	50.7 µM	58.6 µM	> 100 µM	32.9 µM		39.7 µM	35.3 µM	82.3 µM	> 100 µM	33.6 µM
O=c1nc2n(CCO)c(-c3ccccc3)c(-c3ccccc3)nc-2c(=O)[nH]1	> 100 µM	> 100 µM	> 100 µM	> 100 µM	> 100 µM	> 100 µM	> 100 µM	> 100 µM	> 100 µM	> 100 µM	> 100 µM	> 100 µM
CCCCCCN(C(=O)Oc1ccccc1)C(C#N)c1ccccc1 (stereo not drawn)	> 100 µM	> 100 µM	> 100 µM	> 100 µM	> 100 µM	> 100 µM	> 100 µM		> 100 µM	> 100 µM	> 100 µM	> 100 µM
